Assays:
[1] = tested on: pre-miR-21; assay: In vitro RNase L cleavage of pre-miR-21 (FRET sensor, gel mapping); format: biochemical
Method: In Vitro Fluorescent RNA Cleavage. A model RNA hairpin^15 labeled with a 5′ 6-Fluorescein (6FAM) and 3′ Black Hole Quencher (IQ4) (5′ 6FAM-[…]-3′ IQ4; 5′ FAM/3′ BHQ model RNA) (SEQ ID NO: 3) or a miR-21 Hairpin Precursor RNA labeled with a 5′ 6-Fluorescein (6FAM) and 3′ Black Hole Quencher (IQ4) (5′ 6FAM-[…] […]-3′ IQ4; 5′ FAM/3′ BHQ miR-21 Hairpin Precursor RNA) (SEQ ID NO: 4) was purchased from Chemgenes with HPLC purification. Solutions of RNA (100 nM) were folded at 65° C. for 5 min and slowly cooled to room temperature in 1×RNase L Buffer (25 mM Tris-HCl, pH 7.4, 100 mM KCl) without MgCl2, β-mercaptoethanol or ATP. After folding, the RNA was supplemented with 10 mM MgCl2, fresh 7 mM β-mercaptoethanol, and 50 μM of ATP. Next, 100 nM of RNase L, prepared as described previously^22, and various concentrations of screening compounds were prepared in 1×RNase L Buffer and added to the RNA. […] The samples were incubated at room temperature for 60 min after which the fluorescence intensity (Ex: 485 nm, Em: 525 nm) was measured using a SpectraMax M5 plate reader or Biotek FLx800 plate reader. The percentage change in fluorescence intensity, where enhancement of fluorescence intensity was indicative of RNA cleavage, was determined by calculating the percentage change in sample fluorescent signals relative to the untreated fluorescent signal (Fi, %). […]

[2] = tested on: pre-miR-21; assay: Measurement of catalytic activity in MDA-MB-231 cells; format: cell-based, human
Method: Measurement of Catalytic Activity. The MDA-MB-231 cells were plated into a 24-well plates (Corning). At ˜80% confluency, the media was aspirated and the cell monolayer was washed with 1×DPBS. Cells were then incubated with 5 (500 nM) or vehicle (DMSO) diluted in cell culture medium for 24 h. Cells were then lysed using 250 μL of RNA Lysis Buffer from a Quick-RNA MiniPrep Kit (Zymo Research). A 100 μL aliquot was transferred to black, non-binding surface, half area 96-well plates (Corning). Fractions of untreated cell lysate were combined and used to generate a standard curve of 5 in cell lysate, by spiking in known concentrations of 5. Fluorescence intensity (Ex: 345 nm, Em: 460 nm) was then measured on a Molecular Devices SpectraMax M5 plate reader to determine compound concentration in cell lysate. Using the generated standard curve, the concentration of 5 in the […] cell lysate aliquot was then used to extrapolate the amount of 5 in pmol in the full 250 μL volume.
RNA was extracted from the cell lysates, followed by RT-qPCR as described above. A standard curve was generated for the pre-miR-21 WT transcript using in vitro transcribed pre-miR-21 (10 ng, 1 ng, 0.1 ng, 0.01 ng, 0.001 ng, 0.0001 ng, 0 ng) completed with each run to accurately calibrate Ct values. The amount of cleaved pre-miR-21 was then calculated by taking the difference between the pmol of pre-miR-21 in untreated samples and the pmol of pre-miR-21 in 5-treated samples. Catalytic activity, or turnover, was calculated by taking the ratio of the pmol of cleaved pre-miR-21 and the pmol of 5 in the sample.

[3] = tested on: IFN-γ; assay: IFN-γ ELISA of MDA-MB-231 supernatant; format: cell-based, human
Method: Measurement of IFN-γ: The MDA-MB-231 cells were plated into a 24-well plate and allowed to grow to 70% confluency. Cells were transfected with 2′-5′ A4 using Lipofectamine RNAiMAX (Life Technologies). Alternatively, MDA-MB-231 cells were mock transfected and treated with vehicle (DMSO) or 5 (5, 50, 500, 5000 nM). Cell culture supernatant was removed at 24 h. The Human IFN-γ ELISA Kit (Bon Opus Biosciences: BE010020) was used to measure interferon gamma levels from the supernatants, per the manufacturer's instructions.

[4] = molecular target: T1, RNase L (Homo sapiens, UniProt Q05823); assay: Co-immunoprecipitation of RNase L from treated cells; format: cell-based; parameters: endogenous in cells; host or cells: MDA-MB-231
T1 sequence (Q05823 1-741): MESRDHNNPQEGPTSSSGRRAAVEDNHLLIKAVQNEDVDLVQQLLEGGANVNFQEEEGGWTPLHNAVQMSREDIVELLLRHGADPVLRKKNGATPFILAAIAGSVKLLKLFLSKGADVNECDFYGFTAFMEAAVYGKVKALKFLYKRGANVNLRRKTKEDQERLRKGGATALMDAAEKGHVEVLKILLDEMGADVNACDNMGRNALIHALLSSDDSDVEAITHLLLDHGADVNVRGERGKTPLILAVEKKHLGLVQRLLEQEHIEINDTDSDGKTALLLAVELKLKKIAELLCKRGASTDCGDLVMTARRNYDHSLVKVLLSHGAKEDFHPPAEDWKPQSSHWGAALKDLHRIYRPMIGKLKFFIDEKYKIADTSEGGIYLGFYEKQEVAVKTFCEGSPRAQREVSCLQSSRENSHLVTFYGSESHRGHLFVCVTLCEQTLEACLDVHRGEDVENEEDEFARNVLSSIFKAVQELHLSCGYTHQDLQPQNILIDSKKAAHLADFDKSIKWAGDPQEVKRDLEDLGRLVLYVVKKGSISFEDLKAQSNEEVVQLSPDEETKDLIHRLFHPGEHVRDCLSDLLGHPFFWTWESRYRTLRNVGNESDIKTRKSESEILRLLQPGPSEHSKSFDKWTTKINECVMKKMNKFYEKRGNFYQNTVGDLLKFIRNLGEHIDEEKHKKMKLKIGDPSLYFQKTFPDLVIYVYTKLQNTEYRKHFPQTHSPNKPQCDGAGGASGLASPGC

CCCN(CC(=O)N(CCC)CC(=O)N(CCC)CC(=O)N(CC(=O)NCCOCCOCCOCCOc1ccc(C=C2SC(Nc3ccccc3)=C(C(=O)OCC)C2=O)cc1O)Cc1cn(CCCNC(=O)CCCOc2ccc(-c3nc4cc(-c5ccc(N6CCN(C)CC6)cc5)ccc4[nH]3)cc2)nn1)C(=O)CN(Cc1cn(CCCNC(=O)CCCOc2ccc(-c3nc4cc(-c5ccc(N6CCN(C)CC6)cc5)ccc4[nH]3)cc2)nn1)C(C)=O [Compound 5]
cleavage sites in labeled pre-miR-21 WT RNA (gel mapping) ([1]; 5 and RNase L treatment): Cleavage was observed at U27, G25, C23, and G21
fluorescence cleavage of pre-miR-21 labeled FRET sensor ([1]; with RNase L): dose responsive increase in cleavage
Average pre-miR-21 ([2]; 500 nM, 24 h, MDA-MB-231, mean ± s.d. (n = 6)): 16 ± 3.8 pmol
Cleaved pre-miR-21 ([2]; 500 nM, 24 h, difference untreated minus treated, mean ± s.d.): 68 ± 6.7 pmol
Turnovers ([2]; 500 nM, 24 h, ratio Cleaved pre-miR-21 / 5 Detected, mean ± s.d.): 26 ± 2.5
moles of pre-miR-21 cleaved by one mole of compound ([2]; MDA-MB-231): 26 mol
IFN-7 ELISA [3]: no activation of the innate antiviral immune response
pre-miR-21 in the enriched fraction of RNase L co-immunoprecipitation [4]: increased levels of pre-miR-21 in the enriched fraction
enrichment of pre-miR-210 in RNase L co-immunoprecipitation ([4]; 200 nM): no enrichment of pre-miR-210
increase in pre-miR-21 in RNase L co-immunoprecipitation ([4]; 200 nM): ~3 fold
